Values of other authors in US11980625B2, “Ganaxolone for use in treating tuberous sclerosis complex” (Marinus Pharmaceuticals, Inc., priority 2019, dated 2024).
Where two headings read alike, the source gives them in different places.

Key:
[1] = human plasma; cited from earlier work
[2] = tested on: patients with TSC-related epilepsy; conditions: 16 weeks, cited from earlier work
[3] = tested on: patients with TSC-related epilepsy; conditions: Phase 2, open-label, 3 months; cited from earlier work
[4] = tested on: patients with TSC-related epilepsy; conditions: 18 weeks, cited from earlier work

CC(=O)[C@H]1CC[C@H]2[C@@H]3CC[C@H]4C[C@H](O)CC[C@]4(C)[C@H]3CC[C@]12C [Allopregnanolone, 3α,5α-tetrahydroprogesterone, reference compound]
half-life [1]: about 45 minutes

C=C(C)[C@@H]1CCC(C)=C[C@H]1c1c(O)cc(CCCCC)cc1O [EPIDIOLEX ®]
Median % change in seizure freq (Drug Response) ([2]; Phase 3, 25 mg/kg/day): 25 mg/kg/day: −48.6%
Median % change in seizure freq (Drug Response) ([2]; Phase 3, High-exposure): High-exposure: −47.5%
Median % change in seizure freq (Drug Response) [3]: −48.8%

CO[C@H]1C[C@@H]2CC[C@@H](C)[C@@](O)(O2)C(=O)C(=O)N2CCCC[C@H]2C(=O)O[C@H]([C@H](C)C[C@@H]2CC[C@@H](OCCO)[C@H](OC)C2)CC(=O)[C@H](C)/C=C(\C)[C@@H](O)[C@@H](OC)C(=O)[C@H](C)C[C@H](C)/C=C/C=C/C=C/1C [AFINITOR ®]
Median % change in seizure freq (Drug Response) ([4]; Phase 3, High-exposure): High-exposure: −39.6%
Median % change in seizure freq (Drug Response) ([4]; Phase 3, Low-exposure): Low-exposure: −29.3%
